Results reported in patent US10450301B2, “Apoptosis signal-regulating kinase 1 inhibitors and methods of use thereof” (ENANTA PHARMACEUTICALS, INC., priority 2017, dated 2019).

Target: ASK1 (Homo sapiens (Human), UniProt Q99683)
Experiment: HTRF KinEASE Assay (TR-FRET, STK3 peptide substrate), inhibition of ASK1
Type: biochemical
Details: 5 nM ASK1 kinase, 1 μM STK3 peptide substrate, 100 μM ATP, 3 hours; compound 0 to 10 μM
Experimental: Assay HTRF® KinEASE™ Assay
ASK1 was purchased from Thermofisher (Catalogue # PV4011), ATP was purchased from Sigma (Catalogue # A7699), HI-TRF® KinEASE™ Assay System was obtained from Cisbio (Bedford, Mass.). […] HTRF® KinEASE™-STK is a generic method for measuring serine/threonine kinase activities using a time-resolved fluorescence resonance energy transfer (TR-FRET) immunoassay. […] 100 Um ATP is added to start kinase reaction and incubated for 3 hours. The STK3-antibody labeled with Eu^3+-Cryptate and 125 Nm streptavidin-XL665 are mixed in a single addition with stop reagents provided by the Cisbio kit used to stop the kinase reaction. […] The resulting TR-FRET is proportional to the phosphorylation level. Staurosporine was used as the positive control. IC50 was determined by Xlfit 5.3.
By using above method, the inhibition of ASK1 was evaluated for the compounds of Formula (I).

Chain of ASK1 (Q99683 whole entry): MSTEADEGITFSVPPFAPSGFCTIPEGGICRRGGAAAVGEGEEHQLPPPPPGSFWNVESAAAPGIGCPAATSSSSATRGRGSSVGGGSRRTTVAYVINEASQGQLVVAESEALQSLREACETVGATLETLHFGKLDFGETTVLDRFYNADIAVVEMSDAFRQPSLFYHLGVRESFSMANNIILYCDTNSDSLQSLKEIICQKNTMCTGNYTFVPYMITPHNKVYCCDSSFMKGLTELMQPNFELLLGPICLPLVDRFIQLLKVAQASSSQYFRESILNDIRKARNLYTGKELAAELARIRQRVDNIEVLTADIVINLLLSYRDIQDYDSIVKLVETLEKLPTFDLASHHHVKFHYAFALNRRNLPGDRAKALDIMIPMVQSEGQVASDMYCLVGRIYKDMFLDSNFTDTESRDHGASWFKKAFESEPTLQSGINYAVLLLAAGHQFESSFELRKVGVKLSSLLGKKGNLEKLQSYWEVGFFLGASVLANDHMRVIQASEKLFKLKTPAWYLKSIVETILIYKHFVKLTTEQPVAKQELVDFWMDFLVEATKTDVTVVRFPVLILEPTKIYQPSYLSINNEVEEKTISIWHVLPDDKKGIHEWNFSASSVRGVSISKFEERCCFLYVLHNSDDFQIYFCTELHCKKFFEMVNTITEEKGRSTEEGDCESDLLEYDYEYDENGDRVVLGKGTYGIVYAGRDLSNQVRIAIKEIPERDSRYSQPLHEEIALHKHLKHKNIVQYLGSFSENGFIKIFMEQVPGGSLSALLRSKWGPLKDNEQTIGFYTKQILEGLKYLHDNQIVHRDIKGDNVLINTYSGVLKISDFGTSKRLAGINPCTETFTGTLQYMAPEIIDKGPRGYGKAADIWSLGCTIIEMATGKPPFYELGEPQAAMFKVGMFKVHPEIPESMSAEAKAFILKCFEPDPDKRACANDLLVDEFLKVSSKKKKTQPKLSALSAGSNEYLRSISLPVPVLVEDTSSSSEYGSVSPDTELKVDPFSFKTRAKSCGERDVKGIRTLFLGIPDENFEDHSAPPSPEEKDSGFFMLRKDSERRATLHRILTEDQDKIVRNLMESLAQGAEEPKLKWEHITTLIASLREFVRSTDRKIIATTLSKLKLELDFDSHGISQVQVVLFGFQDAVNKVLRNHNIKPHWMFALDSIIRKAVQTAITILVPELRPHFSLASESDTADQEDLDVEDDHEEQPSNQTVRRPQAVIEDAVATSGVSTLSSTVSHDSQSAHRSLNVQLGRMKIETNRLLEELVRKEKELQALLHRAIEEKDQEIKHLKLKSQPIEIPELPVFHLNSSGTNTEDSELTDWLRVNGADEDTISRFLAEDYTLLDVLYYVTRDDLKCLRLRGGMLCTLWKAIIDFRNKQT

| Compound | IC50 [µM] |
| --- | --- |
| CC(C)n1nnnc1-c1cccc(NC(=O)c2ccc3c(c2)CN(C(=O)N(C)C)C3)n1 [Example 12] | 0.1 to 1 |
| CC(C)c1nnnn1-c1cccc(NC(=O)c2cc3c(cc2F)CCNC3)n1 [Example 71] | > 1 |
| CC(C)n1nnnc1-c1cccc(NC(=O)c2ccc3c(c2)CNC3)n1 [Example 8] | > 1 |
| CC(C)n1nnnc1-c1cccc(NC(=O)c2ccc3c(c2)CN(C(=O)OCc2ccccc2)C3)n1 [Example 2] | > 1 |
| CC(=O)OC[C@@H](C)n1nnnc1-c1cccc(NC(=O)c2cc3c(cc2F)CCNC3)n1 [Example 81] | > 1 |
| C[C@H](CO)n1nnnc1-c1cccc(NC(=O)c2cc3c(cn2)CCN(C(=O)N2[C@@H]4CCC[C@H]2CC4)C3)n1 [Example 182, 6-((1R,5 S)-8-azabicyclo[3.2.1]octane-8-carbonyl)-N-(6-(1-((R)-1-hydroxypropan-2-yl)-1H-tetrazol-5-yl)pyridin-2-yl)-5,6,7,8-tetrahydro-2,6-naphthyridine-3-carboxamide] | 0.001 to 0.01 |
| COCCC(=O)N1CCc2ccc(C(=O)Nc3cccc(-c4nncn4C(C)C)n3)cc2C1 [Example 60] | 0.01 to 0.1 |
| CC(C)n1cnnc1-c1cccc(NC(=O)c2cc3c(cc2F)CCN(C(=O)OCc2ccccc2)C3)n1 [Example 53, benzyl 6-fluoro-7-((6-(4-isopropyl-4H-1,2,4-triazol-3-yl)pyridin-2-yl)carbamoyl)-3,4-dihydroisoquinoline-2(1H)-carboxylate] | 0.01 to 0.1 |
| C[C@H](CO)n1nnnc1-c1cccc(NC(=O)c2cc3c(cc2F)CCN(C(=O)N(C)CC(F)(F)F)C3)n1 [Example 75, (R)-6-fluoro-N7-(6-(1-(1-hydroxypropan-2-yl)-1H-tetrazol-5-yl)pyridin-2-yl)-N2-methyl-N2-(2,2,2-trifluoroethyl)-3,4-dihydroisoquinoline-2,7(1H)-dicarboxamide] | 0.01 to 0.1 |
| CC(C)n1cnnc1-c1cccc(NC(=O)c2cc3c(cc2F)CCN(C(=O)N2CCOCC2)C3)n1 [Example 50] | 0.01 to 0.1 |
| CC(C)CS(=O)(=O)N1CCc2cc(F)c(C(=O)Nc3cccc(-c4nnnn4C(C)C)n3)cc2C1 [Example 86] | 0.01 to 0.1 |
| COCCC(=O)N1CCc2cc(F)c(C(=O)Nc3cccc(-c4nnnn4C(C)C)n3)cc2C1 [Example 28] | 0.01 to 0.1 |
| CC(C)n1nnnc1-c1cccc(NC(=O)c2cc3c(cc2F)CCN(C(=O)N(C)C)C3)n1 [Example 96] | 0.01 to 0.1 |
| C=CCCOC(=O)N1CCc2ccc(C(=O)Nc3cccc(-c4nncn4C(C)C)n3)cc2C1 [Example 64] | 0.01 to 0.1 |
| C[C@H](CO)n1nnnc1-c1cccc(NC(=O)c2cc3c(cn2)CCN(C(=O)N(C)C2CCCC2)C3)n1 [Example 184, (R)—N2-cyclopentyl-N7-(6-(1-(1-hydroxypropan-2-yl)-1H-tetrazol-5-yl)pyridin-2-yl)-N2-methyl-3,4-dihydro-2,6-naphthyridine-2,7(1H)-dicarboxamide] | > 1 |
| CCN(C)C(=O)N1Cc2ccc(C(=O)Nc3cccc(-c4nncn4C(C)C)n3)cc2C1 [Example 5, N2-ethyl-N5-(6-(4-isopropyl-4H-1,2,4-triazol-3-yl)pyridin-2-yl)-N2-methylisoindoline-2,5-dicarboxamide] | 0.1 to 1 |
| CC(C)n1nnnc1-c1cccc(NC(=O)c2cc3c(cc2F)CCN(C(=O)N(C)C2CCCC2)C3)n1 [Example 78] | 0.01 to 0.1 |
| 2-(N,N-dimethylsulfamoyl)-N-(6-(4-isopropyl-4H-1,2,4-triazol-3-yl)pyridin-2-yl)isoindoline-5-carboxamide [Example 10] | > 1 |
| COc1cc2c(cc1C(=O)Nc1cccc(-c3nnnn3C(C)C)n1)C(=O)N(C(C)C)C2 [Example 174] | 0.1 to 1 |
| CC(C)n1nnnc1-c1cccc(NC(=O)c2cc3c(cc2F)CCN(C(=O)N2CCOCC2)C3)n1 [Example 92] | 0.01 to 0.1 |
| CCOC(=O)N1CCc2cc(F)c(C(=O)Nc3cccc(-c4nnnn4C(C)C)n3)cc2C1 [Example 30] | 0.01 to 0.1 |

Other lines, results leading:

| IC50 [µM] | Compound |
| --- | --- |
| 0.001 to 0.01 | CC(C)CN1CCc2cnc(C(=O)Nc3cccc(-c4nnnn4[C@H](C)CO)n3)cc2C1 [Example 164] |
| 0.001 to 0.01 | C[C@H](CO)n1nnnc1-c1cccc(NC(=O)c2cc3c(cn2)CCN(C(=O)C2CCC2)C3)n1 [Example 124] |
| 0.001 to 0.01 | COCCOC(=O)N1CCc2cnc(C(=O)Nc3cccc(-c4nnnn4[C@H](C)CO)n3)cc2C1 [Example 158] |
| 0.001 to 0.01 | C[C@H](CO)n1nnnc1-c1cccc(NC(=O)c2cc3c(cn2)CCN(C(=O)OC2CCC2)C3)n1 [Example 157] |
| 0.01 to 0.1 | CC(C)n1nnnc1-c1cccc(NC(=O)c2cc3c(cc2F)CCN(C(=O)N2C[C@@H](C)O[C@@H](C)C2)C3)n1 [Example 106] |
| 0.001 to 0.01 | CC(C)n1cnnc1-c1cccc(NC(=O)c2cc3c(cc2F)CCN(S(=O)(=O)CCC(F)(F)F)C3)n1 [Example 46] |
| 0.001 to 0.01 | CC(C)n1nnnc1-c1cccc(NC(=O)c2cc3c(cn2)CCN(S(=O)(=O)CCC(F)(F)F)C3)n1 [Example 172] |
| 0.001 to 0.01 | C[C@H](CO)n1nnnc1-c1cccc(NC(=O)c2cc3c(cn2)CCN(C(=O)N(C)C)C3)n1 [Example 168] |
| 0.01 to 0.1 | CC(C)CN(C)C(=O)N1CCc2cc(F)c(C(=O)Nc3cccc(-c4nnnn4C(C)C)n3)cc2C1 [Example 79] |
| 0.001 to 0.01 | C[C@H](CO)n1nnnc1-c1cccc(NC(=O)c2cc3c(cn2)CCN(C(=O)NCc2ccccc2)C3)n1 [Example 129] |
| 0.001 to 0.01 | CC(C)n1nnnc1-c1cccc(NC(=O)c2cc3c(cn2)CCN(C(=O)C2CCCC2)C3)n1 [Example 119] |
| 0.001 to 0.01 | CCOC(=O)N1CCc2cnc(C(=O)Nc3cccc(-c4nnnn4C(C)C)n3)cc2C1 [Example 118] |
| 0.001 to 0.01 | CCN(CC)C(=O)N1CCc2cc(F)c(C(=O)Nc3cccc(-c4nnnn4C(C)C)n3)cc2C1 [Example 94] |
| 0.001 to 0.01 | CC(C)CC(=O)N1CCc2cnc(C(=O)Nc3cccc(-c4nnnn4[C@H](C)CO)n3)cc2C1 [Example 151] |
| 0.001 to 0.01 | CC(C)S(=O)(=O)N1CCc2cnc(C(=O)Nc3cccc(-c4nnnn4[C@H](C)CO)n3)cc2C1 [Example 149] |
| 0.001 to 0.01 | CC(C)n1cnnc1-c1cccc(NC(=O)c2cc3c(cc2F)CCN(C(=O)OC2CCCC2)C3)n1 [Example 25] |
| 0.001 to 0.01 | C[C@H](CO)n1nnnc1-c1cccc(NC(=O)c2cc3c(cn2)CCN(C(=O)OCC(C)(C)C)C3)n1 [Example 159] |
| 0.001 to 0.01 | CC(C)n1cnnc1-c1cccc(NC(=O)c2cc3c(cc2F)CCN(S(=O)(=O)NC2CC2)C3)n1 [Example 20, 2-(N-cyclopropylsulfamoyl)-6-fluoro-N-(6-(4-isopropyl-4H-1,2,4-triazol-3-yl)pyridin-2-yl)-1,2,3,4-tetrahydroisoquinoline-7-carboxamide] |
| 0.001 to 0.01 | CC(C)n1cnnc1-c1cccc(NC(=O)c2cc3c(cc2F)CCN(S(=O)(=O)N(C)C)C3)n1 [Example 49] |
| 0.001 to 0.01 | CC(C)CS(=O)(=O)N1CCc2cc(F)c(C(=O)Nc3cccc(-c4nncn4C(C)C)n3)cc2C1 [Example 42] |
| 0.001 to 0.01 | C[C@H](CO)n1nnnc1-c1cccc(NC(=O)c2cc3c(cn2)CCN(C(=O)NCCC(F)(F)F)C3)n1 [Example 183] |
| 0.001 to 0.01 | C[C@H](CO)n1nnnc1-c1cccc(NC(=O)c2cc3c(cn2)CCN(S(=O)(=O)c2ccccc2)C3)n1 [Example 120] |
| 0.001 to 0.01 | CC(C)n1nnnc1-c1cccc(NC(=O)c2cc3c(cn2)CCN(C(=O)N(C)C)C3)n1 [Example 116] |
